# Laboratory results published in US11324826B2, “Multifunctional treatment and diagnostic compositions and methods” (priority 2018, dated 2022).
# Values joined by “and” are separate entries in the source; they are usually repeats but may differ in a detail not shown here. Equal values may be shown once.
# Legend:
# [1] = Photooxidation of DHN under visible light irradiation in aerobic solution, DHN absorption monitored at 301 nm; details: for Rate, first order rate constant of DHN photooxidation: aerobic conditions, visible light, acetonitrile:water (6:4)
# Experimental: For a typical experiment, microliter amounts of standard solutions were combined, for illustration not limitation, microliter amounts of a standard solution of Fe(III) solutions (30 μL of 1.0×10^−2 M) and DHN solution (36 μL of 1.0×10^−2 M) added into a cuvette containing 3 mL of solution TMPyP (6.00×10^−6 M). Quartz cuvettes with 1 cm path-length and 3 mL volume were used for all measurements.
# For singlet oxygenation of 1,5-dihydroxynaphthalene (DHN) by TMPyP in aqueous solution, a 3 mL solution of DHN (1.2×10^−4 M) and TMPyP (6.0×10^−6 M) was prepared by mixing 36 μL of 1×10^−2 M of DHN standard solution and 18 μL of 1×10^−3 M of TMPyP standard solution with ultrapure water. The solution was prepared at room temperature in an open atmosphere. Photooxygenation of samples was performed in a Rayonet photoreactor and monitored by recording a decrease of UV-vis absorption. For example, photoxygenation of DHN by TMPyP was performed in a Rayonet photoreactor for approximately twenty minutes at 28° C. and the photooxygenation of DHN was monitored by recording a decrease of UV-vis absorption of DHN at 301 nm for 20 minutes in 2 minutes intervals. The effect of metal ions on singlet oxygen generation was studied similarly except with the addition of microliter amounts of M^2+ or M^3+ ions (1×10^−2 M) (positively charged cations with a +2 charge or a +3 charge) into a DHN/TMPyP aqueous solution.
# [2] = Photooxidation of DHN under visible light irradiation in anaerobic (argon purged) solution, DHN absorption monitored at 301 nm; details: for Photooxidation of DHN (in words): anaerobic; for Rate, first order rate constant of DHN photooxidation: anaerobic conditions, visible light, acetonitrile:water (6:4)
# Experimental: First, the treatment composition (DHN+TMPyP+Fe(III)) was compared against commercially available Fe(III)TMPyP and prepared TMPyP+Fe(II), all in presence of DHN, to determine if any or all can produce hydroxyl radical (OH) in anaerobic condition. An aqueous solution of TMPyP and DHN was thoroughly purged with argon followed by irradiation with visible light. DHN's absorption at 301 nm was recorded in 2 minute intervals to monitor in situ production of OH in solution.
# [3] = aqueous solution, 655 nm CW laser, calculated with Equation 1
# Experimental: Singlet Oxygen Quantum Yield (ΦΔ) of TMPyP was determined using DHN (1.2×10^−4 M) as a singlet oxygen quencher and methylene blue (MB) as a reference standard. A 3 mL solution of TMPyP (6.0×10^−6 M) solution and MB (1.0×10^−5 M) solution both of which contain DHN (1.2×10^−4 M) were prepared. Each solution was irradiated with a 655 nm CW laser and the UV-vis spectrum of each solution was recorded at 1 min intervals for 5 minutes. The quantum yields were calculated with Equation 1 by using ΦΔ(s) of MB (ΦΔ=0.52) reported in the prior art.
# [formula] In Equation 1, S is the slope of the plot of the absorbance versus irradiation, and F is the absorption correction factor.
# To determine the efficiency of TMPyP for singlet oxygen generation in aqueous solution, ^1O2 quantum yield (ΦΔ) was calculated by using methylene blue as a standard with a known ΦΔ of 0.52. […] Most importantly, the reaction of DHN and ^1O2 can be monitored by observing gradual decrease of the absorption of DHN peaks from 295 nm to 355 nm and so DHN can be used as a ^1O2 probe for ^1O2 quantum yield (ΦΔ) measurement.
# Above cited Equation 1 was followed to calculate ^1O2 quantum yield (ΦΔ) for TMPyP, where S is the slope of the plot of the absorbance versus irradiation, and F is the absorption correction factor.
# [4] = aqueous solution 6.0×10^−6 M, excitation 423 nm, calculated with Equation 3
# Experimental: For fluorescence study, three solutions of 3 mL volume were prepared. Study solution 1 (aqueous solution of TMPyP) was prepared by mixing 18 μL of 1.0×10^−3 M TMPyP with ultrapure water. Study solution 2 (aqueous solution of TMPyP and Fe(III) ions) was made by mixing 18 μL of 1.0×10^−3 M TMPyP and 30 μL of 1.0×10^−2 M iron(III) chloride with ultrapure water. Study solution 3 (aqueous solution of TMPyP and DHN) was prepared by mixing 18 μL of 1.0×10^−3 M TMPyP and 36 μL of 1.0×10^−2 M DHN with ultrapure water. Fluorescence emission was measured upon excitation of each solution at 423 nm with an excitation slit width of 10.0 nm and an emission slit width of 12.0 nm. Each experiment was carried out at room temperature and under normal atmospheric conditions.
# Crystal violet (1.0×10^−5 M) with a known ΦF=0.020 in water was used as a standard.
# Then the fluorescence quantum yield (ΦF) of TMPyP was calculated by using Equation 3 and crystal violet (1.0×10^−5 M) as a standard with ΦF=0.020 in water, fluorescence quantum yield known from the prior art.
# [formula] where in Equation 3, A is the absorbance, F represents the area under the emissions curve, and n is the refractive index of the solvent used.
# [5] = reported in the prior art; cited from earlier work
# [6] = in water, prior art literature value; cited from earlier work
# BL21 E. coli [7] = test: In vitro BL21 E. coli growth inhibition in hydrogen peroxide rich environment under dark conditions; assay type: cell-based; details: alone at the experimental concentration (Fe(III) 1.0×10^−4 M or 1.0×10^−3 M; 400 μM H2O2)
# Experimental: To determine utility for treatment of bacteria of the claimed treatment compositions in an aqueous H2O2 rich environment (typical tumor environment), E. coli bacteria were mixed with the treatment composition in the presence of H2O2 in dark conditions under normal room temperature and pressure. […] A series of control reactions were carried out to see if alone, any of Fe(III) ions with 1.0×10^−4 M concentration (FIG. 23A) or Fe(III) ions with 1.0×10^−3 M concentration (FIG. 23B) or 400 μM H2O2 (FIG. 23C) can inhibit the growth of E. coli bacteria under identical reaction conditions.
# BL21 E. coli [8] = test: In vitro BL21 E. coli growth inhibition in aerobic conditions, visible light versus dark; assay type: cell-based; details: growth recorded after 48 hours
# Experimental: Method to assess bacteria inhibition examined in vitro effects with BL21 E. coli. […] Prior art procedure reported in Photochemistry and Photobiology 2010, 86 (4), 890-894 was followed to grow E. coli cells, even though other prior art procedures can be used. BL21 was selected because of availability. […] Luria Broth (LB)-Lennox formulation were allowed to grow in an incubator at 28° C. shaking at 250 rpm until the beginning of their exponential growth phase (A600=0.2). For each experiment, one milliliter of the E. coli solution was centrifuged and washed with sterile water once. After removing washing liquid, the E. coli solutions were then re-suspended in 500.0 μL of sterile water and 200 μL of stock solutions of each of the following were added: (a) DHN (4.2×10^−44.20×10^−4 M), (b) Juglone (4.2×10^−44.20×10^−4 M), (c) Fe(III) (3.5×10^−4 M) and TMPyP (2.1×10^−52.10×10^−5 M), (d) DHN (4.2×10^−44.20×10^−4 M) and TMPyP (2.1×10^−52.10×10^−5 M), (e) Fe(III) (3.5×10^−4M), DHN (4.2×10^−4 M) and TMPyP (2.1×10^−5 M), (f) Fe(III) (3.5×10^−4 M), Juglone (4.2×10^−4 M) and TMPyP (2.1×10^−5 M), and TMPyP (2.1×10^−5).
# Controls of each sample were prepared similarly and kept covered to assure that no light was reacted with the TMPyP while other samples were irradiated in a Rayonet photoreactor for 10 minutes. After irradiation, the 700.0 μL samples were briefly vortexed and then 20.0 μL of each sample was spread evenly over individual petri dishes containing LB agar. The plates were inverted, then incubated at 28° C. for 48 hours.
# A “light versus dark” comparison study was performed by introducing treatment composition into two equal concentrations of E. coli bacteria solutions, one E. coli solution was kept in dark while other was irradiated with visible light.
# As part of the test, a comparison study, including “light versus dark” was performed of treatment composition (FIG. 22E Fe(III) (3.5×10^−4 M), DHN (4.2×10^−4M) and TMPyP (2.1×10^−5 M), versus FIG. 22A DHN (4.2×10^−4 M), FIG. 22B Juglone (4.2×10^−4 M), FIG. 22C Fe(III) (3.5×10^−4 M) and TMPyP (2.1×10^−5 M), FIG. 22D DHN (4.2×10^−4 M) and TMPyP (2.1×10^−5 M), and FIG. 22F Fe(III) (3.5×10^−4 M), Juglone (4.2×10^−4 M) and TMPyP (2.1×10^−5 M).
# [9] = irradiated with visible light 10 minutes
structure (smiles),measurement,setting,value
"C[n+]1ccc(C2=C3C=CC(=N3)C(c3cc[n+](C)cc3)=c3ccc4[n]3[Fe+][n]3c2ccc3C(c2cc[n+](C)cc2)=C2C=CC(=N2)C=4c2cc[n+](C)cc2)cc1 [Fe(III)TMPyP, Fe(III) bound meso-tetrakis(N-methyl-4-pyridyl) porphyrin]",Rate constant of photooxidation of DHN,"[1]; aerobic aqueous environment, FIG. 11",4.67e-05 s⁻¹
same,"Rate Constant, kobs, of DHN decay kinetics","[1]; aerobic aqueous solution as printed, DHN 1.2×10^−4 M, porphyrin 6.0×10^−6 M, iron 1.0×10^−4 M, 301 nm",5.5e-05 s⁻¹
same,Rate constant k of photo-oxidation of DHN,"[2]; anaerobic aqueous environment, FIG. 12",5.5e-05 s⁻¹
"C[n+]1ccc(-c2c3nc(c(-c4cc[n+](C)cc4)c4ccc([nH]4)c(-c4cc[n+](C)cc4)c4nc(c(-c5cc[n+](C)cc5)c5ccc2[nH]5)C=C4)C=C3)cc1.[Cl-].[Cl-].[Cl-].[Cl-] [TMPyP, meso-tetra(N-methyl-4-pyridyl) porphine tetrachloride]",Maximum rate of photooxidation of DHN by TMPyP (k),"[1]; aerobic, Fe(III) ions about 50 μL of 1.0×10^−2 M",0.000943 s⁻¹
same,Rate constant of DHN photooxidation by TMPyP,"[1]; aerobic, metal free solution",0.000658 s⁻¹
same,Rate of photooxidation of DHN by TMPyP (k),"[1]; aerobic, upon addition of 10 μL of 1.0×10^−3 M of Fe(III) ions",0.00039 s⁻¹
same,Rate of photooxidation of DHN by TMPyP (k),"[1]; aerobic, upon addition of 75 μL of 1.0×10^−2 M of Fe(III) ions",0.000568 s⁻¹
same,Photooxidation of DHN (in words),"[2]; absence of Fe(III) ions, FIG. 13",negligible photooxidation
same,Photooxidation of DHN (in words),"[2]; presence of Fe(III) ions, FIG. 14",substantial photooxidation
same,Singlet oxygen quantum yield (ΦΔ),[3],0.503
same,Fluorescence quantum yield (ΦF),[4],0.0139
same,"Singlet oxygen quantum yield (ΦΔ), prior art",[5],0.58 and 0.74 and 0.9
same,"Fluorescence quantum yield (ΦF), prior art",[6],0.016
"[Cl][Fe]([Cl])[Cl] [Fe(III) ions, iron (III) chloride]","Inhibition of growth of E. coli, control alone",BL21 E. coli [7],No noticeable inhibition
"Oc1cccc(-c2c3nc(c(-c4cccc(O)c4)c4ccc([nH]4)c(-c4cccc(O)c4)c4nc(c(-c5cccc(O)c5)c5ccc2[nH]5)C=C4)C=C3)c1 [m−THP, meso-tetra(m-hydroxyphenyl)porphine]","Rate, first order rate constant of DHN photooxidation",[1],0.0012 s⁻¹
same,"Rate, first order rate constant of DHN photooxidation",[2],4e-05 s⁻¹
CN(C)c1ccc(C(=C2C=CC(=[N+](C)C)C=C2)c2ccc(N(C)C)cc2)cc1 [Crystal violet],"Fluorescence quantum yield (ΦF), prior art",[6],0.020
"OO [H2O2, hydrogen peroxide]","Inhibition of growth of E. coli, control alone",BL21 E. coli [7],No noticeable inhibition
"O=C1C=CC(=O)c2c(O)cccc21 [Juglone, 5-hydroxy-1,4-naphthalenedione]",Inhibition of E. coli growth,BL21 E. coli [8]; [9],complete inhibition
same,Inhibition of E. coli growth,BL21 E. coli [8]; kept in dark,complete inhibition
"Oc1cccc2c(O)cccc12 [DHN, 1,5-dihydroxynaphthalene]",Inhibition of E. coli growth,BL21 E. coli [8]; [9],very marginal inhibition effect
same,Inhibition of E. coli growth,BL21 E. coli [8]; kept in dark,almost no inhibition
"Oc1ccc(-c2c3nc(c(-c4ccc(O)cc4)c4ccc([nH]4)c(-c4ccc(O)cc4)c4nc(c(-c5ccc(O)cc5)c5ccc2[nH]5)C=C4)C=C3)cc1 [p−THP, meso-tetra(p-hydroxyphenyl)porphine]","Rate, first order rate constant of DHN photooxidation",[1],0.0008 s⁻¹
same,"Rate, first order rate constant of DHN photooxidation",[2],2e-05 s⁻¹
CN(C)c1ccc2nc3ccc(=[N+](C)C)cc-3sc2c1 [methylene blue],"Singlet oxygen quantum yield (ΦΔ), prior art",[5],0.52
